Data taken from patent US12692262B2, “Substituted ureas as orexin receptor agonists” (Merck Sharp & Dohme LLC, priority 2020, dated 2026).

Molecular target: T1, human OX2R (Homo sapiens, UniProt O43614)
T1 construct: expressed in transfected cells; host or cells: CHO (Chinese hamster ovary) cells grown under G418 selection
T1 sequence (O43614 1-444): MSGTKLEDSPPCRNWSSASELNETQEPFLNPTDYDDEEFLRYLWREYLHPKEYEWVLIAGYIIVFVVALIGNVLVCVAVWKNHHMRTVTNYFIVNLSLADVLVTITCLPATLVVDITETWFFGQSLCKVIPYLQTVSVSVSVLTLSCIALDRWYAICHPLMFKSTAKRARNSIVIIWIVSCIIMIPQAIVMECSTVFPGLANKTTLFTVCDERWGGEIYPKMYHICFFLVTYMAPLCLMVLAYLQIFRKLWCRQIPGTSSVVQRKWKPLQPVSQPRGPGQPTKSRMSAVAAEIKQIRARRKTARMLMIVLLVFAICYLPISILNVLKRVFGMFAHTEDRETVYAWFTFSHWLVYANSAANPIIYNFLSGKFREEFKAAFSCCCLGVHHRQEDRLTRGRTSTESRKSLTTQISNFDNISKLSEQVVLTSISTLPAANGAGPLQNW
Experiment: IPOne (IP-1 accumulation) assay in CHO cells expressing human OX2R
Type: cell-based
Conditions: for EC50: CHO cells expressing human OX2R, IP-One assay, 2 h incubation, four parameter logistic fit, read-out: OX2R Potency, EC50; for % of maximum agonist effect (relative to Orexin A): percent effect vs mean max effect of a reference compound at 1 uM (100% activity vs Orexin A), human OX2R
Outline: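 CHO cells stably expressing human OX2R, grown in Iscove's modified DMEM with 10% FBS; agonist-driven IP-1 accumulation via the Gαq pathway measured by HTRF (D2/AB-cryptate detection after lysis). EC50 taken as the inflection point of a four-parameter logistic fit.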

SMILES	EC50	% of maximum agonist effect (relative to Orexin A)
CCc1nc(-c2cc([C@H](N(CC)C(=O)N[C@@H](CCC(F)(F)F)C(F)(F)F)C(F)(F)F)ncc2OC)cn2ccnc12 [Example 9-2, 1-ethyl-1-((S)-1-(4-(8-ethylimidazo[1,2-a]pyrazin-6-yl)-5-methoxypyridin-2-yl)-2,2,2-trifluoroethyl)-3-((S)-1,1,1,5,5,5-hexafluoropentan-2-yl)urea]	5.5 nM	100.5%
CCN(C(=O)N[C@@H](CCC(F)(F)F)C(F)(F)F)[C@H](C)c1cc(-c2cc(OC)n3nccc3c2)c(OC)cn1 [Example 11-5, 1-ethyl-3-((S)-1,1,1,5,5,5-hexafluoropentan-2-yl)-1-((R)-1-(5-methoxy-4-(7-methoxypyrazolo[1,5-a]pyridin-5-yl)pyridin-2-yl)ethyl)urea]	0.6 nM	100.1%
CCN(C(=O)N[C@@H](CCC(F)(F)F)C(F)(F)F)C(c1cc(-c2cc(OC)c3ncccc3c2)c(OC)cn1)C(F)(F)F (stereo partly drawn) [Example 10-11, 1-ethyl-3-((S)-1,1,1,5,5,5-hexafluoropentan-2-yl)-1-(2,2,2-trifluoro-1-(5-methoxy-4-(8-methoxyquinolin-6-yl)pyridin-2-yl)ethyl)urea]	7.3 nM	101.3%
CCN(C(=O)N[C@@H](CCC(F)(F)F)C(F)(F)F)[C@@H](c1cc(-c2nc(OC)c3nccn3c2C)c(OC)cn1)C(F)(F)F [Example 9-3, 1-ethyl-3-((S)-1,1,1,5,5,5-hexafluoropentan-2-yl)-1-((S)-2,2,2-trifluoro-1-(5-methoxy-4-(8-methoxy-5-methylimidazo[1,2-a]pyrazin-6-yl)pyridin-2-yl)ethyl)urea]	6.2 nM	100.7%
CCN(C(=O)N[C@@H](CCC(F)(F)F)C(F)(F)F)C(c1cc(-c2cn3cc(C)nc3c(OC)n2)c(OC)cn1)C(F)F (stereo partly drawn) [Example 2-17, 1-(2,2-difluoro-1-(5-methoxy-4-(8-methoxy-2-methylimidazo[1,2-a]pyrazin-6-yl)pyridin-2-yl)ethyl)-1-ethyl-3-((S)-1,1,1,5,5,5-hexafluoropentan-2-yl)urea]	3.2 nM	101.7%
C#CC(CCC(F)(F)F)NC(=O)N(CC)[C@H](C)c1cccc(-c2cn3ccnc3c(OC)n2)c1 (stereo partly drawn) [Example 2-65, 1-ethyl-1-((R)-1-(3-(8-methoxyimidazo[1,2-a]pyrazin-6-yl)phenyl)ethyl)-3-(6,6,6-trifluorohex-1-yn-3-yl)urea]	4 nM	100.1%
CCN(C(=O)NC(c1cccc(F)c1)C(F)(F)F)[C@@H](c1cccc(-c2cn3ccnc3c(OC)n2)c1)C(F)(F)F (stereo partly drawn) [Example 2-66, 1-ethyl-1-((S)-2,2,2-trifluoro-1-(3-(8-methoxyimidazo[1,2-a]pyrazin-6-yl)phenyl)ethyl)-3-(2,2,2-trifluoro-1-(3-fluorophenyl)ethyl)urea]	5.2 nM	97.2%
C=Cc1ccc([C@@H](C)N(CC)C(=O)N[C@H](CC)CCC(F)(F)F)cc1-c1ccc2nccn2c1 [Example 19, 1-ethyl-1-((R)-1-(3-(imidazo[1,2-a]pyridin-6-yl)-4-vinylphenyl)ethyl)-3-((R)-6,6,6-trifluorohexan-3-yl)urea]	23.2 nM	94.9%
CCN(C(=O)N[C@@H](CCCF)C(F)F)[C@@H](c1cc(-c2cn3ncnc3c(OC)n2)c(OC)cn1)C(F)(F)F [Example 4-3, 1-ethyl-1-((S)-2,2,2-trifluoro-1-(5-methoxy-4-(8-methoxy-[1,2,4]triazolo[1,5-a]pyrazin-6-yl)pyridin-2-yl)ethyl)-3-((S)-1,1,5-trifluoropentan-2-yl)urea]	17.2 nM	101.4%
CCN(C(=O)N[C@@H](CCC(F)(F)F)C(F)(F)F)C(c1cc(-c2cn3ccnc3c(OC)n2)cc(OC)n1)C(F)(F)F (stereo partly drawn) [Example 10-16, 1-ethyl-3-((S)-1,1,1,5,5,5-hexafluoropentan-2-yl)-1-(2,2,2-trifluoro-1-(6-methoxy-4-(8-methoxyimidazo[1,2-a]pyrazin-6-yl)pyridin-2-yl)ethyl)urea]	35.2 nM	97.9%
CCN(C(=O)N[C@@H](COC1CC1)C(F)(F)F)[C@@H](c1cc(-c2cn3cc(C)nc3c(OC)n2)c(OC)cn1)C(F)(F)F [Example 2-18, 3-((S)-3-cyclopropoxy-1,1,1-trifluoropropan-2-yl)-1-ethyl-1-((S)-2,2,2-trifluoro-1-(5-methoxy-4-(8-methoxy-2-methylimidazo[1,2-a]pyrazin-6-yl)pyridin-2-yl)ethyl)urea]	29.9 nM	99.6%
CCN(C(=O)N[C@@H](CCC(F)(F)F)C(F)(F)F)C(c1cncc(-c2cn3ccnc3c(OC)n2)c1)C(F)(F)F (stereo partly drawn) [Example 10-22, 1-ethyl-3-((S)-1,1,1,5,5,5-hexafluoropentan-2-yl)-1-(2,2,2-trifluoro-1-(5-(8-methoxyimidazo[1,2-a]pyrazin-6-yl)pyridin-3-yl)ethyl)urea]	76.9 nM	99.4%
CCN(C(=O)N[C@@H](CCC(F)(F)F)C(F)(F)F)C(C)c1cnnc(-c2cn3ccnc3c(OC)n2)c1 (stereo partly drawn) [Example 2-64, 1-ethyl-3-((S)-1,1,1,5,5,5-hexafluoropentan-2-yl)-1-(1-(6-(8-methoxyimidazo[1,2-a]pyrazin-6-yl)pyridazin-4-yl)ethyl)urea]	2870 nM	81.2%
CCN(C(=O)N[C@@H](CCC(F)(F)F)C(F)(F)F)[C@@H](c1cc(-c2cc(OC)c3[nH]cnc3c2)c(OC)cn1)C(F)(F)F [Example 10-15, 1-ethyl-3-((S)-1,1,1,5,5,5-hexafluoropentan-2-yl)-1-((S)-2,2,2-trifluoro-1-(5-methoxy-4-(7-methoxy-1H-benzo[d]imidazol-5-yl)pyridin-2-yl)ethyl)urea]	6.4 nM	99.8%
CCN(C(=O)N[C@@H](CCC(F)(F)F)C(F)(F)F)[C@@H](c1cc(-c2nc(OC)c3nccn3n2)c(OC)cn1)C(F)(F)F [Example 9-11, 1-ethyl-3-((S)-1,1,1,5,5,5-hexafluoropentan-2-yl)-1-((S)-2,2,2-trifluoro-1-(5-methoxy-4-(4-methoxyimidazo[2,1-f][1,2,4]triazin-2-yl)pyridin-2-yl)ethyl)urea]	2.6 nM	99.5%
CCN(C(=O)N[C@@H](CCC(F)(F)F)C(F)(F)F)C(c1cc(-c2cn3ccnc3c(OC)n2)c2nccn2c1)C(F)(F)F (stereo partly drawn) [Example 2-14, 1-ethyl-3-((S)-1,1,1,5,5,5-hexafluoropentan-2-yl)-1-(2,2,2-trifluoro-1-(8-(8-methoxyimidazo[1,2-a]pyrazin-6-yl)imidazo[1,2-a]pyridin-6-yl)ethyl)urea]	8.7 nM	100.1%
CCN(C(=O)N[C@@H](CCC(F)(F)F)C(F)(F)F)C(=C(F)F)c1cc(-c2cn3ccnc3c(OC)n2)c(OC)cn1 [Example 28, (S)-1-(2,2-difluoro-1-(5-methoxy-4-(8-methoxyimidazo[1,2-a]pyrazin-6-yl)pyridin-2-yl)vinyl)-1-ethyl-3-(1,1,1,5,5,5-hexafluoropentan-2-yl)urea]	2130 nM	97.2%
CCN(C(=O)NC(C1CC(F)(F)CC(C)(C)O1)C(F)(F)F)[C@@H](c1cc(-c2cn3cc(C)nc3c(OC)n2)c(OC)cn1)C(F)(F)F (stereo partly drawn) [Example 2-4, 3-(1-(4,4-difluoro-6,6-dimethyltetrahydro-2H-pyran-2-yl)-2,2,2-trifluoroethyl)-1-ethyl-1-((S)-2,2,2-trifluoro-1-(5-methoxy-4-(8-methoxy-2-methylimidazo[1,2-a]pyrazin-6-yl)pyridin-2-yl)ethyl)urea]	4.3 nM	100.6%
CCN(C(=O)N[C@H]1C[C@@]1(C)C(F)(F)F)[C@@H](c1cc(-c2cn3ccnc3c(OC)n2)c(OC)cn1)C(F)(F)F [Example 2-39, 1-ethyl-3-((1S,2R)-2-methyl-2-(trifluoromethyl)cyclopropyl)-1-((S)-2,2,2-trifluoro-1-(5-methoxy-4-(8-methoxyimidazo[1,2-a]pyrazin-6-yl)pyridin-2-yl)ethyl)urea]	5.8 nM	99.3%
CCN(C(=O)NC(CC(F)F)C(F)(F)F)[C@H](C)c1cccc(-c2cn3ccnc3c(OC)n2)c1 (stereo partly drawn) [Example 2-52, 1-ethyl-1-((R)-1-(3-(8-methoxyimidazo[1,2-a]pyrazin-6-yl)phenyl)ethyl)-3-(1,1,1,4,4-pentafluorobutan-2-yl)urea]	35.8 nM	100.6%
CCN(C(=O)N[C@@H](CCC(F)(F)F)C(F)(F)F)[C@H](C)c1cccc(-c2cc(OC)c3nc(O)cn3c2)c1 [Example 26, 1-ethyl-3-((S)-1,1,1,5,5,5-hexafluoropentan-2-yl)-1-((R)-1-(3-(2-hydroxy-8-methoxyimidazo[1,2-a]pyridin-6-yl)phenyl)ethyl)urea]	144 nM	89.1%
